Measurements: US20130203718A1 (priority 2010, published 2013)

Experiments:
hAR = target: T1, hAR (Homo sapiens, UniProt P10275); assay: APRn selectivity: transactivation in HEK293T cells transiently expressing hAR; type: cell-based; conditions: for agonist efficacy towards hAR (in words): HEK293T, FIG. 11
T1 construct: expressed in transfected cells; host or cells: HEK 293T
T1 sequence (P10275 1-920): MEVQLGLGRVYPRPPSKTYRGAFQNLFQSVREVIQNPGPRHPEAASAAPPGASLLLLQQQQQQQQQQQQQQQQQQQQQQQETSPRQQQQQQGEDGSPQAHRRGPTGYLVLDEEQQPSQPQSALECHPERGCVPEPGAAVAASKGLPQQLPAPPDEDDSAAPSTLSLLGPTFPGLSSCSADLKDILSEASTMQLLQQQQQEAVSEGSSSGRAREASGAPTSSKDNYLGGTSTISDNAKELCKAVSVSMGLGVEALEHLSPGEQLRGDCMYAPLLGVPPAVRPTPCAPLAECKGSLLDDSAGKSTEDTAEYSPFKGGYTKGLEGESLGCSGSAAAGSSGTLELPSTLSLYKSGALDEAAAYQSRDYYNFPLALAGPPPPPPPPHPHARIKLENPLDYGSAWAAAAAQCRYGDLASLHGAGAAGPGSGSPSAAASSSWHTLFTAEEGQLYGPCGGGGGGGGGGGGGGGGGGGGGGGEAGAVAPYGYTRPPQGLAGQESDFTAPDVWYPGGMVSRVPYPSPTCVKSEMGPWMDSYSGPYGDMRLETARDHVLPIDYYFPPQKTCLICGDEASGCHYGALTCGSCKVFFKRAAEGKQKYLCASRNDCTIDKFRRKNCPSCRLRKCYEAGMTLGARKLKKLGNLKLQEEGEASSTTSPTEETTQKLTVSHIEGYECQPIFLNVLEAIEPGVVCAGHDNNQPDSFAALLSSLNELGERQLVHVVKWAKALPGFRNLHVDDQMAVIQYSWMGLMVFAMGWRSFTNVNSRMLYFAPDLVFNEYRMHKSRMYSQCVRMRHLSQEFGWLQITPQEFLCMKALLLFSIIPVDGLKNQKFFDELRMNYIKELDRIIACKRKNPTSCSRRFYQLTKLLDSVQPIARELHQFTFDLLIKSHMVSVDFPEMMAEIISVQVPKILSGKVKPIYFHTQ
Protocol: (§1) Measurement of the APRn Selectivity in HEK 293T.
(§2) The HEK-293T cells were cultured and transfected according to the method described above for the PR transactivation assays. The expression vectors pcDNA-hAR, kindly provided by G. A. Coetzee, pchGR (Hellal-Levy, C et al. FEBS Lett 1999, 464, 9), and pchMR (Fagart, J. et al. EMBO J. 1998, 17, 3317) were used for studying the ability of APRn to activate or inactivate the AR, GR and MR, respectively. For each transfection assays, 2 μg of the expression vector was used together with 7 μg of the GRE2-Luc reporter vector. Dihydrotestosterone (DHT), dexamethasone (Dex) and Aldosterone (Aldo) were selected as AR, GR and MR ligands, respectively. They were used at the concentration of 10^−9 M. The APRn agonist and antagonist efficacy for AR, GR and MR were measured as described above for PR. The results are the mean±SEM of three independent experiments.
(§3) Transfection assays were performed in HEK 293T cells by using expression vectors for the hAR, hGR and hMR and the GRE2-Luc reporter used for the PR transactivation assays.

hMR = target: T2, hMR (Homo sapiens, UniProt P08235); assay: APRn selectivity: transactivation in HEK293T cells transiently expressing hMR; type: cell-based; conditions: mean±SEM
T2 construct: expressed in transfected cells; host or cells: HEK 293T
T2 sequence (P08235 1-984): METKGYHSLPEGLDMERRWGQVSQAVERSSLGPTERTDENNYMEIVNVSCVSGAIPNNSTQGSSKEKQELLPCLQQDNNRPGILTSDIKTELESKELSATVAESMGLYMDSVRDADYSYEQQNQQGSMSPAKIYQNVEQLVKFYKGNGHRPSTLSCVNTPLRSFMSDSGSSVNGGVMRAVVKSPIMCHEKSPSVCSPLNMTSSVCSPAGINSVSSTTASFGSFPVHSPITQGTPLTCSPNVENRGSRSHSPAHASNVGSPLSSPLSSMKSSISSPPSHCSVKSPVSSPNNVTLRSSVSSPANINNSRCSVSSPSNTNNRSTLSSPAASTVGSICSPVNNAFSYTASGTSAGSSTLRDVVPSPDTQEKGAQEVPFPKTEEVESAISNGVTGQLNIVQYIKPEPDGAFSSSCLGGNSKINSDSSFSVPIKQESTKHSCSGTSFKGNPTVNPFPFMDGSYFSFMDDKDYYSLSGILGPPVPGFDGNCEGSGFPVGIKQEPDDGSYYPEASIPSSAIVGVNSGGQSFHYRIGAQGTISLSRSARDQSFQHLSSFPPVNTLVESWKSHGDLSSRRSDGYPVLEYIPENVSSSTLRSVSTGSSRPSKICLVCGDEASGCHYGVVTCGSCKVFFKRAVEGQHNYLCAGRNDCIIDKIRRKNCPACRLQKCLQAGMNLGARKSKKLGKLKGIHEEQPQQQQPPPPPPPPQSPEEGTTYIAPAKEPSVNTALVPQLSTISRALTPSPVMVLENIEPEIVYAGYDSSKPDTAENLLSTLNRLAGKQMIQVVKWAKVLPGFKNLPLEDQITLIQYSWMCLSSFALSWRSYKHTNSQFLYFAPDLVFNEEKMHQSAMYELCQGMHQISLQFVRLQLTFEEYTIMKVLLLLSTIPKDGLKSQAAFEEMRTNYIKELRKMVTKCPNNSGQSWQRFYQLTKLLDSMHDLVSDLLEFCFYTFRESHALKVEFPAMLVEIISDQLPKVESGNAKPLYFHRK
Protocol: as §1, §2, §3

hGR = target: T3, hGR (Homo sapiens, UniProt P04150); assay: APRn selectivity: transactivation in HEK293T cells transiently expressing hGR; type: cell-based; conditions: HEK293T transiently expressing hGR, mean±SEM
T3 construct: expressed in transfected cells; host or cells: HEK 293T
T3 sequence (P04150 1-777): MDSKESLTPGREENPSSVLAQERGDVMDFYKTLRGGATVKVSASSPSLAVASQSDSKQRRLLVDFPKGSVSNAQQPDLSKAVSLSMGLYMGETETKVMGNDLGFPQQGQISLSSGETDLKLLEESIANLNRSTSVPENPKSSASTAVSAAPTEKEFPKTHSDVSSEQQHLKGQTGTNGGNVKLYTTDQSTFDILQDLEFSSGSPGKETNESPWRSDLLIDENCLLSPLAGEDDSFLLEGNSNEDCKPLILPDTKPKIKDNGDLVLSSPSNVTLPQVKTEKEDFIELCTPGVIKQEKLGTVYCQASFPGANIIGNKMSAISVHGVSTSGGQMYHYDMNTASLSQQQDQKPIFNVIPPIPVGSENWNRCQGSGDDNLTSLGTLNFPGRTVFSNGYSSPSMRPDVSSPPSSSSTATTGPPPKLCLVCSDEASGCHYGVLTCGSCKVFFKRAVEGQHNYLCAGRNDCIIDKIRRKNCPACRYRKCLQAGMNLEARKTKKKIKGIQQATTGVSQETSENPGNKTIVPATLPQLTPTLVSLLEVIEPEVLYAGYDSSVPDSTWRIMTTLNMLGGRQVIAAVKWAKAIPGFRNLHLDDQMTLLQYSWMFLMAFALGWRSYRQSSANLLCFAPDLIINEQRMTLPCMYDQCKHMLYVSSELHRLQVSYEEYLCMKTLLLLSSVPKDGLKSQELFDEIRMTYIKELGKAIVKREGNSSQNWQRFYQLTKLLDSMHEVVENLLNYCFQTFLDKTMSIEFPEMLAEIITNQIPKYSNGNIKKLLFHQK
Protocol: as §1, §2, §3

hPRB = target: T4, hPRB (Homo sapiens, UniProt P06401); assay: PR transactivation assay (GRE2-Luc) in HEK293T cells transiently expressing hPRB; type: cell-based; parameters: expressed in transfected cells; host or cells: HEK 293T; conditions: series 1 (no C3 substituent), HEK293T, APRn 1 μM, FIG. 1
T4 sequence (P06401 1-933): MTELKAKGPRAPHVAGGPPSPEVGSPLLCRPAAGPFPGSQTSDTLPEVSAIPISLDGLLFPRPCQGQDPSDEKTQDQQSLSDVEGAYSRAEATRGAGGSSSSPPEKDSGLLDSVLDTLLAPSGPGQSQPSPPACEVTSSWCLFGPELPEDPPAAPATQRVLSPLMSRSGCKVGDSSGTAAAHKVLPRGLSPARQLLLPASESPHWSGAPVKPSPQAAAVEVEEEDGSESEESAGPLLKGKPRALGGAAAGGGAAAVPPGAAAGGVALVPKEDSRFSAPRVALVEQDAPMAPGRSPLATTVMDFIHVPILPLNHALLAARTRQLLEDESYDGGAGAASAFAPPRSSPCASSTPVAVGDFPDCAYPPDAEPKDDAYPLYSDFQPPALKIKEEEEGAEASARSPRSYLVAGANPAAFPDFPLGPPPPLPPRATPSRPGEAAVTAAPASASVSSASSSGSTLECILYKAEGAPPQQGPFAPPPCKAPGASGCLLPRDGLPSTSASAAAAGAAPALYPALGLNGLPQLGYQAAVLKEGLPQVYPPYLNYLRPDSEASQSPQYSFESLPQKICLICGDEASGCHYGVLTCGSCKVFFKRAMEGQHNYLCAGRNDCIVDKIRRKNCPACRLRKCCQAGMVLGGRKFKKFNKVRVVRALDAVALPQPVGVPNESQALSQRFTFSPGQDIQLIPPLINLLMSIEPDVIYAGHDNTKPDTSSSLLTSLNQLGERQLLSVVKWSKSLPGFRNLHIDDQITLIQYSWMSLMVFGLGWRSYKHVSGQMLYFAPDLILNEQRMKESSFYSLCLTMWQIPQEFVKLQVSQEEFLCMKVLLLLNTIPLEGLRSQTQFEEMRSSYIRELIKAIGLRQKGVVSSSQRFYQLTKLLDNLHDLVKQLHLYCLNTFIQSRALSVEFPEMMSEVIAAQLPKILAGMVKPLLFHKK
Protocol: PR Transactivation Assays in HEK 293T.
HEK 293T cells were routinely cultured in a high-glucose DMEM medium (Invitrogene, Cergy Pontoise, France), 20 mM HEPES, 2 mM glutamine, 1× non essential amino acids, 100 U/mL penicillin and 100 μg/mL streptomycin supplemented with 10% foetal calf serum (FCS) in a humidified atmosphere at 37° C. and with 5% CO2. One day before transfection, the cells were seeded at 3×10^6 cells/[…] diameter culture Petri dish and cultured overnight in the same medium. Six hours before transfection, the FCS supplemented medium was replaced by the same medium supplemented with 10% dextran-charcoal treated FCS. Transfections were carried out using the calcium phosphate precipitation method. The calcium phosphate precipitate was prepared with 0.5 μg pchPRB (Petit-Topin, et al Mol Pharmacol, 2009, 75, 1317), 7 μg reporter vector (GRE2-Luc from A. Biola-Vidamment and M. Pallardy) and 1 μg of pcβgal for an internal transfection control, in 1 mL 140 mM NaCl, 0.75 mM Na2HPO4, 25 mM HEPES, 125 mM CaCl2 pH 7.05 and added to the cells 30 minutes later. After 16 h incubation, the transfected cells were washed with PBS containing 2.5 mM EDTA, trypsinized and pooled. The transfected cells were replated in 24-well plates (100.000 transfected cells/well). […] Cells were lysed in 300 μl PBS 1×, 25 mM glycylglycine, 4 mM EDTA, 15% glycerol, 1% triton X-100, 15 mM MgSO4, pH 7.8 supplemented with 2 mM β-mercaptoethanol. The luciferase activities were quantified by using a Mithras LB940 reader microplates (Berthold).
The APRn “agonist efficacy” was determined from the following formula:
Agonist efficacy=[luciferase activity]1/[luciferase activity]2×100
The APRn “antagonist efficacy” was calculated from the following formula:
Antagonist efficacy=100−[luciferase activity]1/[luciferase activity]2×100
The results are the mean±SEM of three to five independent experiments.
All the synthesized APRn were classified in 4 series depending on the nature of their C3 substituent (R1/R′1 groups). The first one (series 1) includes APRn with no C3 substituent (R1═R′1═H) whereas series 2, 3 and 4 are related to APRn bearing a methoxyl (R1═OMe), a hydroxyl (R1═OH) and a fluorine atom (R1═F), respectively. The agonist/antagonist activities of APRn were determined either in human HEK293T cells transiently expressing hPRB or in human MDA-MB-231 iPRAB cells conditionally expressing hPRB, by using a luciferase reporter gene placed under the control of a glucocorticoid response element (GRE2-Luc). The APRn “agonist efficacy” was determined from the luciferase activity measured in the presence of APRn (1 μM). […] The “agonist efficacy” and “antagonist efficacy” are expressed as defined in the biological protocols section.

Compound | agonist efficacy towards hAR (in words) (hAR) | selectivity for hPR vs hAR, hGR and hMR (in words) (hAR; conclusion from hAR, hGR and hMR transactivation assays) | melting point [°C] | MR Antagonist efficacy (%) (hMR; aldosterone 10^−9 M) | MR Agonist efficacy (%) (hMR) | GR Antagonist efficacy (%) (hGR; dexamethasone 10^−9 M) | Emax (hGR; HEK-293T, read-out: GR Agonist efficacy (%)) [%] | hPRB agonist/antagonist character (in words) (hPRB)
CC(=O)[C@H]1CC[C@H]2[C@@H]3CC[C@H]4C[C@@H](F)CC[C@]4(C)[C@H]3CC[C@]12C [APR-17, 3β-Fluoro-5α-pregnan-20-one] | low agonist efficacy | selective hPR antagonists | 154 to 155 | – | – | – | – | –
CC#C[C@]1(O)CCC2C3CC=C4C[C@@H](F)CC[C@]4(C)C3CC[C@@]21C (stereo partly drawn) [APR-44, 31-Fluoro-17α-(1-propynyl)androst-5-en-17β-ol] | – | – | 136 to 137 | 1.6 ± 5.5 | 0.47 ± 0.10 | 2.0 ± 2.8 | 0.2 ± 0.1 | –
CC(=O)O[C@H]1CCC2C3CC=C4C=CCC[C@@H]4C3CC[C@@]21C (stereo partly drawn) [APR-49, 17β-Acetoxy-19-nor-androst-3,5-diene] | high potent hAR agonists | – | 94 to 95 | – | – | – | – | full antagonists
